Experimental data published in patent US20110040086A1, “Novel Beta-Lactam Antibiotics, Methods for Their Production, and Their Use” (DRITTE PATENTPORTFOLIO BETEILIGUNGSGESELLSCHAFT MB, priority 2007, published 2011).

Columns and labels:
[1] = tested on: Enterococcus faecalis 769; assay: agar diffusion test (Test System II, multi-resistant germs); format: cell-based; set-up: key: r = resistant (no detectable zone of inhibition)
Outline: (§1)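 Disc diffusion on Müller-Hinton II agar; inoculum McFarland 0.5 in saline, streaked in three directions. Discs carry 10/50/100 μg compound (MeOH or water). 37 °C, 18-20 h; read-out: zone-of-inhibition diameter.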

[2] = tested on: Staphylococcus aureus 315; assay: as above; format: cell-based; set-up: key: r = resistant (no detectable zone of inhibition)
Outline: as §1

[3] = tested on: E. faecalis 945; assay: as above; format: cell-based, Enterococcus faecalis; set-up: key: r = resistant (no detectable zone of inhibition)
Outline: as §1

[4] = tested on: S. aureus ATCC 6538; assay: as above; format: cell-based, Staphylococcus aureus
Outline: as §1

[5] = tested on: S. aureus 38418; assay: as above; format: cell-based, Staphylococcus aureus
Outline: as §1

[6] = tested on: S. aureus 520; assay: as above; format: cell-based, Staphylococcus aureus; set-up: key: r = resistant (no detectable zone of inhibition)
Outline: as §1

[7] = tested on: S. aureus 33490; assay: as above; format: cell-based, Staphylococcus aureus; set-up: key: r = resistant (no detectable zone of inhibition)
Outline: as §1

[8] = tested on: S. aureus 36881; assay: as above; format: cell-based, Staphylococcus aureus; set-up: key: r = resistant (no detectable zone of inhibition)
Outline: as §1

[9] = tested on: S. aureus North Germany strain; assay: as above; format: cell-based, Staphylococcus aureus; set-up: key: r = resistant (no detectable zone of inhibition)
Outline: as §1

[10] = tested on: S. aureus 34289; assay: as above; format: cell-based, Staphylococcus aureus; set-up: key: r = resistant (no detectable zone of inhibition)
Outline: as §1

[11] = tested on: S. aureus 526; assay: as above; format: cell-based, Staphylococcus aureus; set-up: key: r = resistant (no detectable zone of inhibition)
Outline: as §1

[12] = tested on: S. aureus 39105; assay: as above; format: cell-based, Staphylococcus aureus; set-up: key: r = resistant (no detectable zone of inhibition)
Outline: as §1

[13] = tested on: S. epidermidis 1068; assay: as above; format: cell-based, Staphylococcus epidermidis; set-up: key: r = resistant (no detectable zone of inhibition)
Outline: as §1

[14] = tested on: S. epidermidis 563; assay: as above; format: cell-based, Staphylococcus epidermidis; set-up: key: r = resistant (no detectable zone of inhibition)
Outline: as §1

[15] = tested on: S. epidermidis 847; assay: as above; format: cell-based, Staphylococcus epidermidis; set-up: key: r = resistant (no detectable zone of inhibition)
Outline: as §1

[16] = tested on: S. epidermidis 1071; assay: as above; format: cell-based, Staphylococcus epidermidis; set-up: key: r = resistant (no detectable zone of inhibition)
Outline: as §1

[17] = tested on: S. epidermidis 125; assay: as above; format: cell-based, Staphylococcus epidermidis
Outline: as §1

[18] = tested on: Bacillus megaterium SBUG 1152; assay: agar diffusion test (Test System 1, antimicrobial effect); format: cell-based
Outline: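 Paper discs loaded with 10 μg, 50 μg or 100 μg of test substance (methanol or water solution) placed on nutrient agar seeded with 10^6 cells of a 17-h B. megaterium culture. After 20 h at 37° C., zone of inhibition measured as diameter in mm.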

[19] = tested on: B. subtilis AWD 166; assay: agar diffusion test (antimicrobial effect); format: cell-based, Bacillus subtilis
Outline: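 Inhibition zone diameters (mm) read after 20 h incubation at 37 °C. Discs carried 10 μg, 50 μg or 100 μg of test substance, dissolved in methanol or distilled water, on agar inoculated with B. subtilis AWD 166 for dense but separate colonies.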

Measured: Diameter of zone of inhibition

7-[2-(2-carbamoyl-3,6-dioxocyclohexa-1,4-dienylamino)-2-(4-hydroxyphenyl)-acetylamino]-desacetoxycephalosporanic acid [1b]
10 mm: [15]; Quantity n [mol] 0.1
r: [1]; Quantity n 0.019 | [1]; Quantity n 0.1 | [1]; Quantity n 0.19 | [2]; Quantity n 0.019 | [2]; Quantity n 0.1 | [3]; Quantity n 0.019 | [3]; Quantity n 0.1 | [3]; Quantity n 0.19 | [6]; Quantity n [mol] 0.019 | [6]; Quantity n [mol] 0.1 | [6]; Quantity n [mol] 0.19 | [7]; Quantity n [μmol] 0.019 | [8]; Quantity n 0.019 | [9]; Quantity n 0.019 | [10]; Quantity n [mol] 0.019 | [10]; Quantity n [mol] 0.1 | [11]; Quantity n 0.019 | [11]; Quantity n 0.1 | [12]; Quantity n 0.019 | [13]; Quantity n 0.019 | [14]; Quantity n 0.019 | [15]; Quantity n [mol] 0.019 | [16]; Quantity n 0.019
12 mm: [8]; Quantity n 0.1 | [9]; Quantity n 0.19 | [10]; Quantity n [mol] 0.19 | [11]; Quantity n 0.19 | [12]; Quantity n 0.1 | [15]; Quantity n [mol] 0.19
20 mm: [7]; Quantity n [μmol] 0.19 | [13]; Quantity n 0.19 | [14]; Quantity n 0.19
30 mm: [18]; Quantity n 0.1 | [19]; Quantity n 0.1
28 mm: [4]; Quantity n 0.19
14 mm: [7]; Quantity n [μmol] 0.1 | [14]; Quantity n 0.1 | [17]; Quantity n 0.019
26 mm: [5]; Quantity n [mol] 0.19 | [17]; Quantity n 0.19
24 mm: [4]; Quantity n 0.1 | [5]; Quantity n [mol] 0.1
16 mm: [4]; Quantity n 0.019 | [5]; Quantity n [mol] 0.019 | [13]; Quantity n 0.1
22 mm: [16]; Quantity n 0.19 | [17]; Quantity n 0.1 | [18]; Quantity n 0.019 | [19]; Quantity n 0.019
18 mm: [8]; Quantity n 0.19 | [12]; Quantity n 0.19 | [16]; Quantity n 0.1
32 mm: [18]; Quantity n 0.19 | [19]; Quantity n 0.19
8 mm: [2]; Quantity n 0.19 | [9]; Quantity n 0.1
